Where “and” joins values, the source holds several entries; their conditions need not be identical. Equal entries are not always repeated. Where two headings read alike, the source gives them in different places. Marks after values point to notes of the source that are not given here.

Experimental findings from patent US10035800B2 (AbbVie Inc., priority 2013, dated 2018) are described below.

The target in one assay is T1, BRD4 (BDII_E352-M457) (Homo sapiens, UniProt O60885).
T1 construct: protocol; made in house
Kind of assay: TR-FRET bromodomain binding assay, second bromodomain of BRD4. The settings on record: TR-FRET assay protocol G (compound 0.92 μM-15 pM); 30 nM probe. An outline of the steps: (§1)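 Compound dilutions are mixed with His-tagged BRD4 bromodomain (8 nM), europium anti-His antibody (1 nM) and Alexa647 probe (BDI 100 nM; BDII 30 nM) in pH 6.0 buffer containing 2% DMSO. After equilibrating one hour at room temperature, TR-FRET is measured; percent inhibition is fitted to obtain IC50, from which Ki is calculated.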
A general note: TR-FRET usually uses a lanthanide donor and a delayed reading to cut background.

The test system of assay [1] is IL-6 (Interleukin-6) production. Kind of assay: LPS (lipopolysaccharide) induced IL-6 production mouse assay. Conditions: oral administration 1 h before LPS 2.5 mg/kg ip, serum 2 h after LPS, p < 0.05 vs vehicle. The assay is classed as in vivo, mice. How it is done: LPS (Lipopolysaccharide) Induced IL-6 Production Mouse Assay
Compounds of the Examples listed in Table 2 were assayed for their ability to inhibit LPS (lipopolysaccharide) induced IL-6 (Interleukin-6) production in mice. Fox Chase SCID® female mice (Charles Rivers Labs, 5 per group) or CD1 female mice (5 per group) received an intraperitoneal challenge of lipopolysaccharide (2.5 mg/kg, L2630 E. coli 0111:B4) one hour after oral administration of compounds. Mice were euthanized 2 hours after lipopolysaccharide injection, blood was removed by cardiac puncture, and then the serum harvested from the blood samples was frozen at −80° C. On the day of the assay the serum samples were brought to room temperature and then diluted 1:20 in phosphate-buffered saline containing 2% bovine serum albumin. Interleukin-6 measurements were performed using a cytokine assay from Meso Scale Discovery (Gaithersburg, Md.) for mouse serum analysis according to the manufacturer's protocol and read on a SECTOR Imager 6000 (Meso Scale Discovery, Gaithersburg, Md.) instrument. Statistical analysis was performed using Prism software (version 5.0) incorporating Dunnett's one way ANOVA. The IL-6 mean and standard deviation of the group of vehicle treated animals were compared with the IL-6 mean and standard deviation of the group treated with drug. A p value <0.05 means that there is less than a 5% probability that the mean values in the two groups are equal.

For a further assay, the target named is T2, BRD4 (BDI_K57-E168) (Homo sapiens, UniProt O60885).
T2 construct: BD1: amino acids K57-E168; made in house
Kind of assay: TR-FRET bromodomain binding assay, first bromodomain of BRD4. The settings on record: TR-FRET assay protocol G (compound 0.92 μM-15 pM); 100 nM probe. The method, boiled down:
as §1

Another assay deals with OPM-2 xenograft tumors. The settings on record: SCID-beige mice.
Assay [2] has as its system breast cancer cell line MX-1. Kind of assay: MX-1 cell line proliferation assay. It is filed as cell-based. Conditions: MX-1 cells, 3-day proliferation assay, Cell Titer Glo; read-out: Cellular proliferation: EC50. An outline of the steps:
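MX-1 cells at 5000/well, in RPMI 1640 with 10% FBS, were exposed to compounds for 3 days. Final concentrations ranged 3 μM–0.1 nM or 1 μM–0.03 nM, in 3-fold steps. Cell Titer Glo luminescence was normalized to DMSO and fitted sigmoidally for EC50; overall MSR 2.1.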
On the technique in general: In ATP-based viability assays light output follows the ATP content of the culture.

Experimental for OPM-2 xenograft tumors: Xenograft Tumor Growth Inhibition Assay
A suspension of cancer cells (5×10^6 per 0.1 mL) prepared in RPMI culture medium (Invitrogen, Carlsbad, Calif.) was diluted 1:1 with a solution of Matrigel™ (BD Biosciences, Franklin Lakes, N.J.) and inoculated subcutaneously into the right hind flank of female SCID-beige (Charles River Labs) mice. Randomization into treatment and vehicle control groups (8-10/group) occurred when the mean tumor volume reached approximately 250 mm^3. Compounds were formulated in 2.5% DMSO, 10% ethanol, 27.5% PEG 400, 60% Phosol 53 MCT. Administration of compound or vehicle was initiated on the day following randomization and continued for 21 days. Tumors were measured twice a week throughout the treatment period using a pair of calipers and tumor volumes were calculated according to the formula V=L×W^2/2 (V: volume, mm^3; L: length, mm. W: width, mm).

For orientation: Ki means the equilibrium dissociation constant of an inhibitor or competing ligand from its target. High values mean lower affinity, low ones higher affinity. Take `Cn1cc2c3c(c[nH]c3c1=O)CN(C1CCC(NC(=O)OC(C)(C)C)CC1)c1ccc(CS(C)(=O)=O)cc1-2` (mixture of isomers) [Example 196]: the inhibitory constant (Ki) stood at 1.72 nM at BRD4 (BDII_E352-M457) and 1.14 nM at BRD4 (BDI_K57-E168). The “% inhibition of LPS induced IL-6 production” value (“% inhibition” below) in assay [1] (mouse strain CD1) turned out to be 79%. The “% TGI” value in the assay with OPM-2 xenograft tumors (2.5 mg/kg PO, QD x21) is 84*** %; in the assay on OPM-2 xenograft tumors (5 mg/kg PO, QD x21), 92*** %. Moreover, the EC50 in assay [2] is 3.82 nM.
For the compound `Cn1cc2c3c(c[nH]c3c1=O)CN(c1ccc(F)cc1)c1ccc(CS(C)(=O)=O)cc1-2` [Example 9, 4-(4-fluorophenyl)-10-methyl-7-((methylsulfonyl)methyl)-3,4-dihydro-1H-1,4,10-triazadibenzo[cd,f]azulen-11(10H)-one], the figures for the inhibitory constant (Ki) on BRD4 (BDII_E352-M457) and on BRD4 (BDI_K57-E168) were 1.11 nM and 0.453 nM, respectively. Also, the “% inhibition” value in assay [1] (mouse strain SCID) worked out at 79%. For the same compound, the “% TGI” value in the assay with OPM-2 xenograft tumors (1.85 mg/kg PO, QD x21) was 87*** %. Also, the EC50 in assay [2] stood at 0.721 nM.
As for `Cn1cc2c3c(c[nH]c3c1=O)CN(c1ccc(F)cc1F)c1ccc(CS(C)(=O)=O)cc1-2` [Example 12, 4-(2,4-difluorophenyl)-10-methyl-7-((methylsulfonyl)methyl)-3,4-dihydro-1H-1,4,10-triazadibenzo[cd,f]azulen-11(10H)-one], the results for the inhibition constant Ki on BRD4 (BDII_E352-M457) and at BRD4 (BDI_K57-E168) were 0.472 nM and 1.34 nM, respectively. Moreover, the “% inhibition” value in assay [1] (mouse strain SCID) was 90%. For the same compound, the “% TGI” value was 82** % and 91*** % with OPM-2 xenograft tumors (1.5 mg/kg IP, QD x21); 87*** % in the assay on OPM-2 xenograft tumors (1.5 mg/kg PO, QD x21); 89** % with OPM-2 xenograft tumors (3 mg/kg IP, QD x21); 81*** % in the assay on OPM-2 xenograft tumors (3 mg/kg PO, 3 on 4 off x3 weeks); 72*** % in the assay with OPM-2 xenograft tumors (3 mg/kg PO, QD x11); 94*** % with OPM-2 xenograft tumors (3 mg/kg PO, QD x21). Further, in assay [2], the EC50 is 4 nM.
Take `CCOC(=O)N1Cc2c[nH]c3c(=O)n(C)cc(c23)-c2cc(F)cc(F)c21` [Example 173, ethyl 5,7-difluoro-10-methyl-11-oxo-10,11-dihydro-1H-1,4,10-triazadibenzo[cd,f]azulene-4(3H)-carboxylate]: the inhibition constant (Ki) is 3.14 nM at BRD4 (BDII_E352-M457) and 6.72 nM at BRD4 (BDI_K57-E168). In assay [1] (mouse strain CD1), the “% inhibition” value is on record as 87%. In the assay on OPM-2 xenograft tumors (1.25 mg/kg PO, QD x21), the “% TGI” value is 49** %. In addition, in assay [2], the EC50 came out at 19.9 nM.
Turning to `Cn1cc2c3c(c[nH]c3c1=O)CN(CCC1CCOCC1)c1ccc(CS(C)(=O)=O)cc1-2` [Example 191, 10-methyl-7-((methylsulfonyl)methyl)-4-(2-(tetrahydro-2H-pyran-4-yl)ethyl)-3,4-dihydro-1H-1,4,10-triazadibenzo[cd,f]azulen-11(10H)-one], the values for the Ki on BRD4 (BDII_E352-M457) and at BRD4 (BDI_K57-E168) were 3.38 nM and 1 nM, respectively. Further, in assay [1] (mouse strain CD1), the “% inhibition” value was found to be 60%. Moreover, in assay [2], the EC50 was determined as 10.7 nM.
For `Cn1cc2c3c(c[nH]c3c1=O)CN(c1ccc(C#N)cc1)c1ccc(CS(C)(=O)=O)cc1-2` [Example 192, 4-(10-methyl-7-((methylsulfonyl)methyl)-11-oxo-10,11-dihydro-1H-1,4,10-triazadibenzo[cd,f]azulen-4(3H)-yl)benzonitrile], in that order: 1.08 nM, 1.65 nM, 73% and 1.25 nM.
For `Cn1cc2c3c(c[nH]c3c1=O)CN(c1ccc(F)cc1F)c1c-2cc(CS(C)(=O)=O)cc1C1CC1` [Example 195, 5-cyclopropyl-4-(2,4-difluorophenyl)-10-methyl-7-((methylsulfonyl)methyl)-3,4-dihydro-1H-1,4,10-triazadibenzo[cd,f]azulen-11(10H)-one] the same measures were 0.62 nM, 2.66 nM, 85% and 3.77 nM.
For `Cn1cc2c3c(c[nH]c3c1=O)CN(c1ccc(Cl)cc1)c1ccc(CS(C)(=O)=O)cc1-2` [Example 198, 4-(4-chlorophenyl)-10-methyl-7-((methylsulfonyl)methyl)-3,4-dihydro-1H-1,4,10-triazadibenzo[cd,f]azulen-11(10H)-one], in that order: 0.63 nM, 1.59 nM, 86% and 0.69 nM.
On to `Cn1cc2c3c(c(C#N)[nH]c3c1=O)CN(c1ccc(Cl)cc1)c1ccc(CS(C)(=O)=O)cc1-2` [Example 199, 4-(4-chlorophenyl)-10-methyl-7-((methylsulfonyl)methyl)-11-oxo-3,4,10,11-tetrahydro-1H-1,4,10-triazadibenzo[cd,f]azulene-2-carbonitrile], for which the Ki on BRD4 (BDII_E352-M457) worked out at 1.21 nM; on BRD4 (BDI_K57-E168) it was 0.81 nM. Also, the “% inhibition” value in assay [1] (mouse strain CD1) is 90%. Further, in the assay on OPM-2 xenograft tumors (1.25 mg/kg PO, QD x21), the “% TGI” value is listed as 91*** %. Besides, in assay [2], the EC50 turned out to be 10.8 nM.
As to `CCNC(=O)c1[nH]c2c(=O)n(C)cc3c2c1CN(c1ccc(F)cc1F)c1ccc(CS(C)(=O)=O)cc1-3` [Example 202, 4-(2,4-difluorophenyl)-N-ethyl-10-methyl-7-((methylsulfonyl)methyl)-11-oxo-3,4,10,11-tetrahydro-1H-1,4,10-triazadibenzo[cd,f]azulene-2-carboxamide], the Ki is 0.35 nM at BRD4 (BDII_E352-M457) and 0.79 nM at BRD4 (BDI_K57-E168). The “% inhibition” value in assay [1] (mouse strain CD1) stood at 47%. Besides, the EC50 in assay [2] turned out to be 4.3 nM.
Regarding `Cn1cc2c3c(c[nH]c3c1=O)CN(c1ccccn1)c1ccc(CS(C)(=O)=O)cc1-2` [Example 207, 10-methyl-7-((methylsulfonyl)methyl)-4-(pyridin-2-yl)-3,4-dihydro-1H-1,4,10-triazadibenzo[cd,f]azulen-11(10H)-one], the Ki on BRD4 (BDII_E352-M457) was determined as 2.09 nM; at BRD4 (BDI_K57-E168), 0.92 nM. Also, the “% inhibition” value in assay [1] (mouse strain CD1) was determined as 65%. In addition, the “% TGI” value was 60*** % in the assay with OPM-2 xenograft tumors (0.25 mg/kg PO, QD x21); 93*** % and 94*** % in the assay with OPM-2 xenograft tumors (0.5 mg/kg PO, QD x21); 97*** % in the assay on OPM-2 xenograft tumors (1 mg/kg PO, QD x21). Besides, the EC50 in assay [2] is 1.33 nM.
On to `Cn1cc2c3c(c[nH]c3c1=O)CN(c1ncc(F)cc1F)c1ccc(CS(C)(=O)=O)cc1-2` [Example 213, 4-(3,5-difluoropyridin-2-yl)-10-methyl-7-((methylsulfonyl)methyl)-3,4-dihydro-1H-1,4,10-triazadibenzo[cd,f]azulen-11(10H)-one], for which the Ki on BRD4 (BDII_E352-M457) was 0.42 nM; at BRD4 (BDI_K57-E168), 0.65 nM. Moreover, the “% TGI” value with OPM-2 xenograft tumors (0.5 mg/kg PO, QD x21) is 82*** %; in the assay with OPM-2 xenograft tumors (1 mg/kg PO, QD x21), 96*** % and 95*** %. For the same compound, the EC50 in assay [2] came to 1.4 nM.
For the compound “N-ethyl-4-(4-fluorophenyl)-10-methyl-7-((methylsulfonyl)methyl)-11-oxo-3,4,10,11-tetrahydro-1H-1,4,10-triazadibenzo[cd,f]azulene-2-carboxamide [Example 194]”, the inhibitory constant (Ki) at BRD4 (BDII_E352-M457) is 0.38 nM; at BRD4 (BDI_K57-E168), 1.33 nM. In addition, the “% inhibition” value in assay [1] (mouse strain CD1) turned out to be 53%. Besides, the EC50 in assay [2] is 1.47 nM.
